Where “and” joins values, the source holds several entries; their conditions need not be identical. Equal values may be shown once. Inconclusive results and toxic doses are left out.
Test system: BDF1 mice, B16 melanoma ip, median survival T/C
Assay: NCI In Vivo Anticancer Drug Screen. Data for tumor model B16 Melanoma (intraperitoneal) in B6D2F1 (BDF1) mice
Details: endpoint: median survival time, higher = longer survival
Method: The antitumor activity of compounds was measured in mice bearing transplantable tumors. Survival or tumor size were measured and the results are expressed as the measurement made in the treated group (T) divided by the measurement made in the vehicle treated control group (C). The tumor model used in this assay is B16 Melanoma (intraperitoneal) in B6D2F1 (BDF1) mice

[1] = dose: 50.0 mg/kg/injection, schedule: Q01DX009 (ip), vehicle: saline with Tween-80
[2] = dose: 100.0 mg/kg/injection, schedule: Q01DX009 (ip), vehicle: saline with Tween-80
[3] = dose: 25.0 mg/kg/injection, schedule: Q01DX009 (ip), vehicle: saline with Tween-80
[4] = dose: 25.0 mg/kg/injection, schedule: Q01DX009 (ip), vehicle: Klucel (hydroxypropylcellulose) (HPC)
[5] = dose: 12.5 mg/kg/injection, schedule: Q01DX009 (ip), vehicle: Klucel (hydroxypropylcellulose) (HPC)
[6] = dose: 50.0 mg/kg/injection, schedule: Q01DX009 (ip), vehicle: Klucel (hydroxypropylcellulose) (HPC)

## C=C1C(=O)OC2/C=C(\C)CC/C=C(/C=O)C(OC(=O)C(C)C)C(O)C12 (configuration not stated)
dose: 1.0 mg/kg/injection, schedule: Q01DX009 (ip), vehicle: saline with Tween-80
  T/C: 97 % of control
dose: 2.0 mg/kg/injection, schedule: Q01DX009 (ip), vehicle: saline with Tween-80
  T/C: 89 % of control and 97 % of control
dose: 4.0 mg/kg/injection, schedule: Q01DX009 (ip), vehicle: saline with Tween-80
  T/C: 100 % of control and 103 % of control
dose: 8.0 mg/kg/injection, schedule: Q01DX009 (ip), vehicle: saline with Tween-80
  T/C: 100 % of control

## O=C1NC(=O)C(Cc2ccccc2)(c2ccccc2)N1 (configuration not stated)
[1]
  T/C: 105 % of control
[2]
  T/C: 102 % of control

## CC(N)CCC(C)(C)O (configuration not stated)
[3]
  T/C: 102 % of control
[1]
  T/C: 105 % of control
[2]
  T/C: 107 % of control

## O=[N+]([O-])c1ccc(N2CCC(CCCC3CCN(c4ccc([N+](=O)[O-])cc4[N+](=O)[O-])CC3)CC2)c([N+](=O)[O-])c1
[4]
  T/C: 106 % of control
dose: 100.0 mg/kg/injection, schedule: Q01DX009 (ip), vehicle: Klucel (hydroxypropylcellulose) (HPC)
  T/C: 112 % of control

## CCCc1c(Cl)nc(Cl)nc1Cl
dose: 6.25 mg/kg/injection, schedule: Q01DX009 (ip), vehicle: Klucel (hydroxypropylcellulose) (HPC)
  T/C: 110 % of control
[5]
  T/C: 103 % of control
[4]
  T/C: 101 % of control and 109 % of control

## CCN(CC)CCCCNc1ccc(NCCCCN(CC)CC)c2c1C(=O)c1ccccc1C2=O
[3]
  T/C: 105 % of control
[1]
  T/C: 99 % of control

## CCSCCC1(CCC(C)C)C(=O)NC(=Nc2ccccc2)NC1=O (configuration not stated)
[1]
  T/C: 91 % of control
[2]
  T/C: 89 % of control
dose: 400.0 mg/kg/injection, schedule: Q01DX009 (ip), vehicle: saline with Tween-80
  T/C: 96 % of control

## CC1(C)N=C(N)N=C(N)N1c1ccc(OCC(=O)Nc2ccc(S(=O)(=O)F)cc2)c(Cl)c1
dose: 50.0 mg/kg/injection, schedule: Q04DX003 (ip), vehicle: saline
  T/C: 107 % of control
dose: 100.0 mg/kg/injection, schedule: Q04DX003 (ip), vehicle: saline
  T/C: 124 % of control

## CC(C)/C=C(\C#N)C(=O)O
[5]
  T/C: 100 % of control
[4]
  T/C: 100 % of control
[6]
  T/C: 100 % of control

## CSc1nc2cc(C)c(C)cc2[nH]1
[3]
  T/C: 100 % of control
[1]
  T/C: 97 % of control
[2]
  T/C: 97 % of control and 102 % of control

## CCOC(=O)c1cnc(SC)nc1Nc1c(Br)cc(Br)cc1Br
[5]
  T/C: 106 % of control
[4]
  T/C: 109 % of control
[6]
  T/C: 106 % of control

## COC1OC(CO)C(O)C(NC(=O)N(C)N=O)C1O (configuration not stated)
dose: 12.5 mg/kg/injection, schedule: Q01DX009 (ip), vehicle: saline
  T/C: 105 % of control
dose: 50.0 mg/kg/injection, schedule: Q01DX009 (ip), vehicle: saline
  T/C: 150 % of control
dose: 100.0 mg/kg/injection, schedule: Q01DX009 (ip), vehicle: saline
  T/C: 176 % of control and 195 % of control
dose: 200.0 mg/kg/injection, schedule: Q01DX009 (ip), vehicle: saline
  T/C: 196 % of control and 209 % of control

## COc1cc(-c2ccc(N=Nc3ccc4c(S(=O)(=O)O)cc(S(=O)(=O)O)c(N)c4c3O)c(OC)c2)ccc1N=Nc1ccc2c(S(=O)(=O)O)cc(S(=O)(=O)O)c(N)c2c1O
[5]
  T/C: 88 % of control
[4]
  T/C: 97 % of control
[6]
  T/C: 102 % of control
